For assay [1], the system named is complement activation by PF4/heparin complexes. Nature of the assay: Antigen-C3c capture ELISA assay: complement activation by PF4/heparin in plasma. It counts as biochemical, human. The following applies: for effect of chelator on complement activation by PF4/heparin: 10 mM added to healthy donor plasma prior to PF4/heparin. The procedure: Antigen-C3c capture ELISA assay and Specificity ELISA: Antigen-specific monoclonal antibodies (mouse anti human PF4/heparin; KKO or mouse anti-protamine/heparin; ADA at 2 μg/mL) were incubated overnight on a microtiter plate (in phosphate buffered saline, PBS) followed by washing and blocking with 1% bovine serum albumin (BSA) in PBS for 2 hours. […] Unless specified antigen concentrations were 25 μg/mL (PF4) and 0.25 U/mL (heparin) for KKO coated plates and 125 μg/mL (PRT) and 6 U/mL (heparin) for ADA coated plates. Next, plasma containing antigen fixed by complement activation fragments was added to the capture plate for 1 hr followed by serial washes. Complement-coated antigen was detected using a biotinylated anti-C3c antibody (recognizes C3 and all C3c-containing fragments of C3, including iC3b; Quidel Corporation, San Diego, Calif.) followed by colorimetric detection as previously described. […] IgM studies: Goat anti-human IgM (μ-chain specific) agarose beads were used to deplete IgM from plasma. Anti-IgM or control agarose beads were incubated with plasma and depleted plasma supernatant was analyzed in the antigen-C3c capture assay described above.

Assay [2] concerns B cells. The assay is described as follows: Flow cytometry of whole blood: binding of PF4/heparin, C3c and IgM to B cells. Type of assay: cell-based, human. The following applies: whole blood incubated with PF4 25 μg/mL + heparin 0.25 U/mL; excess heparin wash. (In general: In flow cytometry, cells or beads pass a laser one at a time.)
Experimental: Flow cytometry studies: Flow-based studies of antigen, complement, or IgM binding to B cells were performed as described previously (Khandelwal S, et al. (2016) Blood, 128(14):1789-1799). Patient samples were processed without addition of exogenous antigen. Cells were analyzed using a BD FACS Canto Flow cytometer (BD Biosciences, Franklin Lakes, N.J.). Signals from a minimum of 10,000 cells were acquired from each sample. Analyses were performed using FCS express software (Version 5 Flow Research Edition; De Novo Software).
To examine if IgM co-localizes with PF4/heparin antigen and complement on B cells, surface IgM on B cells before and after addition of antigen were examined.

The record followed here is patent US20210318335A1, “BIOMARKERS, COMPOSITIONS, AND METHODS FOR DIAGNOSING AND TREATING SUBJECTS EXPOSED TO PROTEIN/HEPARIN COMPLEXES” (DUKE UNIVERSITY, priority 2018, published 2021).

On to `O=C(O)CN(CCN(CC(=O)O)CC(=O)O)CC(=O)O` [EDTA, ethylenediaminetetraacetic acid], for which the “effect of chelator on complement activation by PF4/heparin” value in assay [1] is “eliminated complement activation”.

`O=C(O)CN(CCOCCOCCN(CC(=O)O)CC(=O)O)CC(=O)O` [EGTA, ethylene glycol-bis (β-aminoethyl ether)-N,N,N′,N′-tetraacetic acid]: the “effect of chelator on complement activation by PF4/heparin” value in assay [1] is “eliminated complement activation”. Take `[Cl-].[Cl-].[Mg+2]` [Mg^2+, Magnesium chloride]: in assay [1] (EGTA-treated plasma (10 mM EGTA), MgCl2 10 mM), the “effect of Mg2+ supplementation on complement activation by PF4/heparin” value is on record as “did not rescue complement activation”.

heparin: in assay [2], the “effect of excess heparin on PF4/heparin and IgM fluorescence on B cells” value was “reduced PF4/heparin and IgM fluorescence to baseline”.

B1: C1 esterase inhibitor: C1-inhibitor, classical pathway complement inhibitor added to plasma at 10 and 20 IU/mL (protein, UniProt P05155 23-500, looked up)
Plasma protease C1 inhibitor: NPNATSSSSQDPESLQDRGEGKVATTVISKMLFVEPILEVSSLPTTNSTTNSATKITANTTDEPTTQPTTEPTTQPTIQPTQPTTQLPTDSPTQPTTGSFCPGPVTLCSDLESHSTEAVLGDALVDFSLKLYHAFSAMKKVETNMAFSPFSIASLLTQVLLGAGENTKTNLESILSYPKDFTCVHQALKGFTTKGVTSVSQIFHSPDLAIRDTFVNASRTLYSSSPRVLSNNSDANLELINTWVAKNTNNKISRLLDSLPSDTRLVLLNAIYLSAKWKTTFDPKKTRMEPFHFKNSVIKVPMMNSKKYPVAHFIDQTLKAKVGQLQLSHNLSLVILVPQNLKHRLEDMEQALSPSVFKAIMEKLEMSKFQPTLLTLPRIKVTTSQDMLSIMEKLEFFDFSYDLNLCGLTEDPDLQVSAMQHQTVLELTETGVEAAAASAISVARTLLVFEVQQPFLFVLWDQQHKFPVFMGRVYDPRA
For the molecule B1, the “effect of C1-inhibitor on complement activation by PF4/heparin” value in assay [1] (10 and 20 IU/mL, healthy donor plasma pre-incubated before PF4/heparin) was “complement activation was reduced”.
